# Laboratory results as given in patent US20260201336A1, “REPROGRAMMED SMOOTH MUSCLE CELLS AND METHODS RELATED THERETO” (EMORY UNIVERSITY, priority 2022, published 2026).
# Test system: human dermal fibroblasts (HDFs)
# Assay: qRT-PCR of HDFs treated with ATRA for four days
# Type: cell-based
# Description: Cell culture and maintenance. Human dermal fibroblasts (HDFs) were isolated from the dermis of human juvenile foreskin and expanded in Dulbecco's Modified Eagle's medium (DMEM) (Lonza, Basel, SWI) supplemented with 10% fetal bovine serum (FBS) (Sigma-Aldrich, St. Louis, MO), 1× Antibiotic-Antimycotic (Anti-Anti) (Gibco, Waltham, MA), 1× MEM Non-Essential Amino Acids (MEM NEAA) (Gibco, Waltham, MA), and 1× GlutaMAX Supplement (GlutaMAX) (Gibco, Waltham, MA) at 37° C. with 5% CO2. The Platinum-A (Plat-A) retroviral packaging cell line (Cell Biolabs, San Diego, CA) was maintained in the same medium without Anti-Anti and used for transfection at passages four to seven. HDFs and directly reprogrammed smooth muscle cells (rSMCs) were maintained in DMEM with low glucose (HyClone, Logan, UT) supplemented with 5% FBS, Anti-Anti, MEM NEAA, and GlutaMAX.
# Generation of directly reprogrammed SMCs. For direct reprogramming of HDFs into contractile SMCs, HDFs were seeded at a density of 1.5×10^5 cells per ml in DMEM (Lonza) supplemented with 10% FBS (Sigma-Aldrich), Anti-Anti (Gibco), MEM NEAA (Gibco), and GlutaMAX (Gibco) at 37° C. with 5% CO2. The cells were infected overnight with filtered retroviral medium containing four μg per ml of polybrene (Sigma-Aldrich) with or without 0.4, 2, or 10 μM per liter of all-trans retinoic acid (ATRA) (Sigma-Aldrich), and the viral medium was replaced with DMEM/low glucose (HyClone) supplemented with 5% FBS, Anti-Anti, MEM NEAA, and GlutaMAX with or without ATRA for 24 hrs. The viral infection was repeated twice, and the cells were maintained in DMEM/low glucose containing 5% FBS with or without ATRA for the duration of culture.
# […] reverse transcriptase polymerase chain reaction (qRT-PCR). Total ribonucleic acid (RNA) was isolated from cells using the RNeasy Mini Kit (QIAGEN, Hilden, GE) or TRIsure (Bioline, Memphis, TN), according to the manufacturer's instructions. The extracted RNA was reverse transcribed with TaqMan Reverse Transcription Reagents (Applied Biosystems, Foster City, CA), according to the manufacturer's instructions. The synthesized cDNA was amplified with PowerUP SYBR Green Master Mix (Thermo Fisher Scientific, Waltham, MA), according to the manufacturer's instructions, and was subject to qRT-PCR with human or mouse specific primers, as shown in Table 1. Quantitative assessment of RNA levels was performed using a QuantStudio 3 96-well 0.2-ml real-time PCR system (Applied Biosystems). The relative messenger RNA (mRNA) expression was normalized to GAPDH.
# [1] = ATRA-treated vs untreated HDFs, four days
smiles,measurement,setting,value
"CC1=C(/C=C/C(C)=C/C=C/C(C)=C/C(=O)O)C(C)(C)CCC1 [ATRA, (2E,4E,6E,8E)-3,7-dimethyl-9-(2,6,6-trimethylcyclohexen-1-yl) nona-2,4,6,8-tetraenoic acid]",expression of S100A4,[1],substantially reduced
same,"fold increase of SMC gene expression, CALD1",[1],1.1 fold
same,"fold increase of SMC gene expression, MYH11",[1],6.1 fold
same,mRNA expression of STRA6 and the SMC genes,[1],increased
same,most effective concentration for induction of SMC gene expression,"among the tested ATRA concentrations, HDFs",2 µM
